Activity, CC50 and IC50 data for 17 compounds are collected here from ChEMBL document CHEMBL1140156, “Polyoxygenated diterpenes from the sponge Phorbas sp” (2008).

Each structure is given as a SMILES string. Converted amounts (≈) assume the structure as drawn. The source made the active and inactive calls. The calls are words filed in the database; no cut-off is given here. Bounds are passed on as bounds.

The subject of experiment [1] is K562. As to the kind of experiment: Cytotoxicity against human K562 cells. In kind it is functional. The settings on record: for CC50: read-out: LC50 (the source's name).
Experiment [2] is described as follows: Inhibition of isocitrate lyase.

On to `CC(C)=CCCC(C)/C=C/C=C(\C)[C@H]1CC[C@H](C(=O)O)CC1` (some centres undefined), for which the result in experiment [1] and in experiment [2] was inactive.
Usually IC50 stands for the concentration at which inhibition is half-maximal. As for `CCCC(=O)O[C@@H]1[C@@H](OC(C)=O)[C@@H](O)C(C)=C[C@@H]2[C@H]3[C@@H](C(C)C)[C@@H](OC(=O)CC(C)C)[C@H](OC(=O)CCC)[C@@]3(C)[C@@H](OC(=O)CCC)C[C@]21C` [GAGUNIN A], the CC50 in experiment [1] was 18.1 µg/mL (≈ 25.6 µM). In experiment [2], this compound registered a 50% inhibitory concentration (IC50) of 55 µg/mL (≈ 77.8 µM).
For the compound `CCCC(=O)O[C@@H]1[C@H](C(C)C)[C@@H]2[C@H]3C=C(C)[C@H](O)[C@H](OC(C)=O)[C@@H](OC(=O)CCC)[C@]3(C)C[C@H](OC(=O)CCC)[C@]2(C)[C@H]1OC(=O)CCC` [GAGUNIN B], the CC50 in experiment [1] stood at 3.5 µg/mL (≈ 5.05 µM). This compound returned a half-inhibitory concentration (IC50) in experiment [2] of 55 µg/mL (≈ 79.4 µM).
The corresponding values for `CCCC(=O)O[C@@H]1[C@H](C(C)C)[C@@H]2[C@H]3C=C(C)[C@H](O)[C@H](OC(C)=O)[C@@H](OC(=O)CCC)[C@]3(C)C[C@H](OC(=O)CCC)[C@]2(C)[C@H]1OC(C)=O` [GAGUNIN C] are 0.37 µg/mL (≈ 0.557 µM) and 55 µg/mL (≈ 82.7 µM).
For `CCCC(=O)O[C@H]1C[C@]2(C)[C@H]([C@H]1C(C)C)[C@H]1C=C(C)[C@H](O)[C@H](OC(C)=O)[C@@H](OC(=O)CCC)[C@]1(C)C[C@@H]2OC(=O)CCC` [GAGUNIN D], in that order: 0.19 µg/mL (≈ 0.313 µM) and 55 µg/mL (≈ 90.6 µM).
For `CCCC(=O)O[C@H]1C[C@]2(C)[C@H]([C@H]1C(C)C)[C@H]1C=C(C)[C@H](OC(C)=O)[C@H](O)[C@@H](OC(=O)CCC)[C@]1(C)C[C@@H]2OC(=O)CCC` [GAGUNIN F], in that order: 0.25 µg/mL (≈ 0.412 µM) and 55 µg/mL (≈ 90.6 µM).
With `CCCC(=O)O[C@H]1C[C@]2(C)[C@H](C=C(C)[C@H](OC(C)=O)[C@H](O)[C@H]2OC(=O)CCC)[C@H]2[C@@H](C(C)C)[C@@H](OC(C)=O)C[C@]21C` [GAGUNIN G], the CC50 in experiment [1] came out at 0.45 µg/mL (≈ 0.778 µM). Also, in experiment [2], half-maximal inhibition (IC50) required 55 µg/mL (≈ 95 µM).
Consider `CCCC(=O)O[C@@H]1[C@H](C(C)C)[C@@H]2[C@H]3C=C(C)[C@H](O)[C@H](OC(C)=O)[C@@H](OC(=O)CCC)[C@]3(C)C[C@H](OC(=O)CC)[C@]2(C)[C@H]1OC(=O)CCC` [GAGUNIN H], for which the CC50 in experiment [1] was found to be 10 µg/mL (≈ 14.7 µM). This compound yielded a concentration for half-maximal inhibition (IC50) in experiment [2] of 55 µg/mL (≈ 81 µM).
Take `CCCC(=O)O[C@@H]1[C@H](C(C)C)[C@@H]2[C@H]3C=C(C)[C@H](O)[C@H](OC(C)=O)[C@@H](OC(=O)CCC)[C@]3(C)C[C@H](OC(C)=O)[C@]2(C)[C@H]1OC(=O)CCC` [GAGUNIN I]: the CC50 in experiment [1] was determined as 11.5 µg/mL (≈ 17.3 µM). Besides, the concentration for half-maximal inhibition (IC50) in experiment [2] worked out at 55 µg/mL (≈ 82.7 µM).
For `CCCC(=O)O[C@@H]1[C@H](C(C)C)[C@@H]2[C@H]3C=C(C)[C@H](O)[C@H](OC(C)=O)[C@@H](OC(=O)CCC)[C@]3(C)C[C@H](OC(=O)CCC)[C@]2(C)[C@H]1OC(=O)CC` [GAGUNIN J], in that order: 9.1 µg/mL (≈ 13.4 µM) and 55 µg/mL (≈ 81 µM).
Regarding `CCCCC(=O)O[C@@H]1[C@H](C(C)C)[C@@H]2[C@H]3C=C(C)[C@H](O)[C@H](OC(C)=O)[C@@H](OC(=O)CCC)[C@]3(C)C[C@H](OC(=O)CCC)[C@]2(C)[C@H]1OC(=O)CCC` [GAGUNIN K], in experiment [1], the CC50 came to 17.5 µg/mL (≈ 24.8 µM). The IC50 in experiment [2] was determined as 55 µg/mL (≈ 77.8 µM).
The corresponding values for `CCCC(=O)O[C@H]1C[C@]2(C)[C@H]([C@H]1C(C)C)[C@H]1C=C(C)[C@H](O)[C@H](OC(C)=O)[C@@H](OC(=O)CCC)[C@]1(C)C[C@@H]2OC(C)=O` [GAGUNIN L] are 12.5 µg/mL (≈ 21.6 µM) and 55 µg/mL (≈ 95 µM).
As for `CCCC(=O)O[C@H]1C[C@]2(C)[C@H]([C@H]1C(C)C)[C@H]1C=C(C)[C@H](O)[C@H](OC(C)=O)[C@@H](OC(=O)CCC)[C@]1(C)C[C@@H]2OC(=O)CC(C)C` [GAGUNIN M], the CC50 in experiment [1] worked out at 0.71 µg/mL (≈ 1.14 µM). This compound also showed a 50% inhibitory concentration (IC50) in experiment [2] of 55 µg/mL (≈ 88.6 µM).
The corresponding values for `CCCC(=O)O[C@H]1C[C@]2(C)[C@H]([C@H]1C(C)C)[C@H]1C=C(C)[C@H](OC(C)=O)[C@H](O)[C@@H](OC(=O)CCC)[C@]1(C)C[C@@H]2OC(C)=O` [GAGUNIN N] are over 50 µg/mL and 55 µg/mL (≈ 95 µM).
Take `CCCC(=O)O[C@@H]1[C@H](C(C)C)[C@@H]2[C@H]3C=C(C)[C@H](OC(C)=O)[C@H](O)[C@@H](OC(=O)CCC)[C@]3(C)C[C@H](OC(=O)CCC)[C@]2(C)[C@H]1OC(=O)CCC` [GAGUNIN O]: the CC50 in experiment [1] came out at 11.1 µg/mL (≈ 16 µM). For the same compound, in experiment [2], the IC50 is 55 µg/mL (≈ 79.4 µM).
For `CCCC(=O)O[C@@H]1[C@H](C(C)C)[C@@H]2[C@H]3C=C(C)[C@H](O)[C@H](OC(C)=O)[C@@H](OC(C)=O)[C@]3(C)C[C@H](OC(=O)CCC)[C@]2(C)[C@H]1OC(=O)CCC` [GAGUNIN P], the CC50 in experiment [1] was found to be 8.5 µg/mL (≈ 12.8 µM). Besides, the midpoint of inhibition in experiment [2], the IC50, lay at 55 µg/mL (≈ 82.7 µM).
The corresponding values for `CCCC(=O)O[C@@H]1[C@H](C(C)C)[C@@H]2[C@H]3C=C(C)[C@H](O)[C@H](OC(=O)CC)[C@@H](OC(=O)CCC)[C@]3(C)C[C@H](OC(=O)CCC)[C@]2(C)[C@H]1OC(=O)CCC` [GAGUNIN Q] are over 50 µg/mL and 55 µg/mL (≈ 77.8 µM).
